From patent US12673945B2, “3-((8-((1H-pyrazol-4-yl)amino)imidazo[1,2-a]pyridin-3-yl)ethinyl)-n-phenylbenzamide derivative, method for preparing same, and pharmaceutical composition containing same as active ingredient for prevention or treatment of cancer” (DAEGU-GYEONGBUK MEDICAL INNOVATION FOUNDATION, priority 2020, dated 2026)

Columns and labels:
Format in all cases: cell-based
Parental (Ba/F3) = experiment: Ba/F3 cell proliferation inhibition; details: BaF3; 72 hours, Cell Counting Kit-8
Procedure, shortened: (§1)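 Parental and T315I-Bcr-Abl Ba/F3 cells, 1×10^4 per well, exposed 72 h at 37 °C to nine 3-fold dilutions, final 0 to 10 μM. Viability by CCK-8 after 2 h, absorbance 450 nm; GI50 fitted from percent of vehicle-treated cells.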

T315I-Bcr-Abl (Ba/F3) = experiment: Ba/F3 cell proliferation inhibition; details: BaF3; 72 hours, Cell Counting Kit-8
Procedure, shortened: as §1

KOPM28 cells = experiment: human CML cell proliferation inhibition; details: 72 hours, Cell Counting Kit-8
Procedure, shortened: (§2)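 Read-out: CCK-8, A450 after 2 h, expressed as % of vehicle-treated cells; GI50 fitted from 9-point curves. Compound exposure 72 h at 37 °C, final 0–10 μM, 5-fold dilutions. Bcr-Abl lines TCCS/KOPM28; T315I-Bcr-Abl lines T315I-TCCS/T315I-KOPM28.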

TCCS cells = experiment: human CML cell proliferation inhibition; details: 72 hours, Cell Counting Kit-8
Procedure, shortened: as §2

T315I-TCCS cells = experiment: human CML cell proliferation inhibition; details: 72 hours, Cell Counting Kit-8
Procedure, shortened: as §2

T315I-KOPM28 cells = experiment: human CML cell proliferation inhibition; details: 72 hours, Cell Counting Kit-8
Procedure, shortened: as §2

`Cc1cc(F)c(C(=O)Nc2cc(-c3ccncc3)cc(C(F)(F)F)c2)cc1C#Cc1cnc2c(Nc3cn[nH]c3)cccn12` [Example 97, 5-((8-((1H-pyrazol-4-yl)amino)imidazo[1,2-a]pyridin-3-yl)ethynyl)-2-fluoro-4-methyl-N-(3-(pyridin-4-yl)-5-(trifluoromethyl)phenyl)benzamide] was tested, and the GI50 (Parental (Ba/F3)) was over 5 µM, the GI50 (T315I-Bcr-Abl (Ba/F3)) was 0.05 to 0.5 µM and the GI50 (KOPM28 cells) was under 0.01 µM. It also gave a GI50 (TCCS cells) of under 0.01 µM, a GI50 (T315I-TCCS cells) of 0.1 µM and a GI50 (T315I-KOPM28 cells) of over 0.1 µM.
Molecule `Cc1cc(F)c(C(=O)Nc2cc(-c3cccnc3)cc(C(F)(F)F)c2)cc1C#Cc1cnc2c(Nc3cn[nH]c3)cccn12` [Example 98, 5-((8-((1H-pyrazol-4-yl)amino)imidazo[1,2-a]pyridin-3-yl)ethynyl)-2-fluoro-4-methyl-N-(3-(pyridin-3-yl)-5-(trifluoromethyl)phenyl)benzamide] has a GI50 (Parental (Ba/F3)) of over 5 µM, a GI50 (T315I-Bcr-Abl (Ba/F3)) of 0.05 to 0.5 µM and a GI50 (KOPM28 cells) of under 0.01 µM. For the same molecule, the GI50 (TCCS cells) was under 0.01 µM, the GI50 (T315I-TCCS cells) was 0.1 µM and the GI50 (T315I-KOPM28 cells) was over 0.1 µM.
In the case of `Cc1cc(F)c(C(=O)Nc2cc(N3CCN(C)CC3)cc(C(F)(F)F)c2)cc1C#Cc1cnc2c(Nc3cn[nH]c3)cccn12` [Example 99, 5-((8-((1H-pyrazol-4-yl)amino)imidazo[1,2-a]pyridin-3-yl)ethynyl)-2-fluoro-4-methyl-N-(3-(4-methylpiperazin-1-yl)-5-(trifluoromethyl)phenyl)benzamide], the GI50 (Parental (Ba/F3)) is reported as 0.5 to 5 µM, the GI50 (T315I-Bcr-Abl (Ba/F3)) is reported as 0.05 to 0.5 µM and the GI50 (KOPM28 cells) is reported as under 0.01 µM. The GI50 (TCCS cells) was under 0.01 µM, the GI50 (T315I-TCCS cells) was 0.1 µM and the GI50 (T315I-KOPM28 cells) was over 0.1 µM.
`Cc1cc(F)c(C(=O)Nc2cc(N3CCN(C)C(=O)C3)cc(C(F)(F)F)c2)cc1C#Cc1cnc2c(Nc3cn[nH]c3)cccn12` [Example 100, 5-((8-((1H-pyrazol-4-yl)amino)imidazo[1,2-a]pyridin-3-yl)ethynyl)-2-fluoro-4-methyl-N-(3-(4-methyl-3-oxopiperazin-1-yl)-5-(trifluoromethyl)phenyl)benzamide] gave a GI50 (Parental (Ba/F3)) of over 5 µM, a GI50 (T315I-Bcr-Abl (Ba/F3)) of 0.05 to 0.5 µM and a GI50 (KOPM28 cells) of under 0.01 µM. It also gave a GI50 (TCCS cells) of under 0.01 µM, a GI50 (T315I-TCCS cells) of 0.1 µM and a GI50 (T315I-KOPM28 cells) of over 0.1 µM.
`Cc1cc(F)c(C(=O)Nc2cc(Oc3ccncc3)cc(C(F)(F)F)c2)cc1C#Cc1cnc2c(Nc3cn[nH]c3)cccn12` [Example 101, 5-((8-((1H-pyrazol-4-yl)amino)imidazo[1,2-a]pyridin-3-yl)ethynyl)-2-fluoro-4-methyl-N-(3-(pyridin-4-yloxy)-5-(trifluoromethyl)phenyl)benzamide] gave a GI50 (Parental (Ba/F3)) of over 5 µM, a GI50 (T315I-Bcr-Abl (Ba/F3)) of under 0.05 µM and a GI50 (KOPM28 cells) of under 0.01 µM. The GI50 (TCCS cells) was under 0.01 µM, the GI50 (T315I-TCCS cells) was under 0.01 µM and the GI50 (T315I-KOPM28 cells) was 0.1 µM.
In the case of `Cc1cc(F)c(C(=O)Nc2cc(OCCN(C)C)cc(C(F)(F)F)c2)cc1C#Cc1cnc2c(Nc3cn[nH]c3)cccn12` [Example 102, 5-((8-((1H-pyrazol-4-yl)amino)imidazo[1,2-a]pyridin-3-yl)ethynyl)-N-(3-(2-(dimethylamino)ethoxy)-5-(trifluoromethyl)phenyl)-2-fluoro-4-methylbenzamide], the GI50 (Parental (Ba/F3)) is reported as 0.5 to 5 µM, the GI50 (T315I-Bcr-Abl (Ba/F3)) is reported as 0.05 to 0.5 µM and the GI50 (KOPM28 cells) is reported as under 0.01 µM. The GI50 (TCCS cells) was under 0.01 µM, the GI50 (T315I-TCCS cells) was 0.1 µM and the GI50 (T315I-KOPM28 cells) was over 0.1 µM.
`Cc1cc(F)c(C(=O)Nc2cc(OCCCN(C)C)cc(C(F)(F)F)c2)cc1C#Cc1cnc2c(Nc3cn[nH]c3)cccn12` [Example 103, 5-((8-((1H-pyrazol-4-yl)amino)imidazo[1,2-a]pyridin-3-yl)ethynyl)-N-(3-(3-(dimethylamino)propoxy)-5-(trifluoromethyl)phenyl)-2-fluoro-4-methylbenzamide] showed a GI50 (Parental (Ba/F3)) of over 5 µM, a GI50 (T315I-Bcr-Abl (Ba/F3)) of 0.05 to 0.5 µM and a GI50 (KOPM28 cells) of under 0.01 µM. It also gave a GI50 (TCCS cells) of under 0.01 µM, a GI50 (T315I-TCCS cells) of 0.1 µM and a GI50 (T315I-KOPM28 cells) of over 0.1 µM.
For `Cc1cc(F)c(C(=O)Nc2cc(CN3CCN(C)CC3)cc(C(F)(F)F)c2)cc1C#Cc1cnc2c(Nc3cn[nH]c3)cccn12` [Example 104, 5-((8-((1H-pyrazol-4-yl)amino)imidazo[1,2-a]pyridin-3-yl)ethynyl)-2-fluoro-4-methyl-N-(3-((4-methylpiperazin-1-yl)methyl)-5-(trifluoromethyl)phenyl)benzamide], the GI50 (Parental (Ba/F3)) was 0.5 to 5 µM, the GI50 (T315I-Bcr-Abl (Ba/F3)) was 0.05 to 0.5 µM and the GI50 (KOPM28 cells) was under 0.01 µM. The GI50 (TCCS cells) was under 0.01 µM, the GI50 (T315I-TCCS cells) was 0.1 µM and the GI50 (T315I-KOPM28 cells) was over 0.1 µM.
`Cc1cc(F)c(C(=O)Nc2cc(CN3CCC(N(C)C)C3)cc(C(F)(F)F)c2)cc1C#Cc1cnc2c(Nc3cn[nH]c3)cccn12` (stereo not drawn) [Example 105, 5-((8-((1H-pyrazol-4-yl)amino)imidazo[1,2-a]pyridin-3-yl)ethynyl)-N-(3-((3-(dimethylamino)pyrrolidin-1-yl)methyl)-5-(trifluoromethyl)phenyl)-2-fluoro-4-methylbenzamide] showed a GI50 (Parental (Ba/F3)) of 0.5 to 5 µM, a GI50 (T315I-Bcr-Abl (Ba/F3)) of under 0.05 µM and a GI50 (KOPM28 cells) of under 0.01 µM. For the same molecule, the GI50 (TCCS cells) was under 0.01 µM, the GI50 (T315I-TCCS cells) was under 0.01 µM and the GI50 (T315I-KOPM28 cells) was 0.1 µM.
For `Cc1cc(F)c(C(=O)Nc2cc(CN3CCN(CCO)CC3)cc(C(F)(F)F)c2)cc1C#Cc1cnc2c(Nc3cn[nH]c3)cccn12` [Example 106, 5-((8-((1H-pyrazol-4-yl)amino)imidazo[1,2-a]pyridin-3-yl)ethynyl)-2-fluoro-N-(3-((4-(2-hydroxyethyl)piperazin-1-yl)methyl)-5-(trifluoromethyl)phenyl)-4-methylbenzamide], the GI50 (Parental (Ba/F3)) was over 5 µM, the GI50 (T315I-Bcr-Abl (Ba/F3)) was 0.05 to 0.5 µM and the GI50 (KOPM28 cells) was under 0.01 µM. For the same molecule, the GI50 (TCCS cells) was under 0.01 µM, the GI50 (T315I-TCCS cells) was 0.1 µM and the GI50 (T315I-KOPM28 cells) was over 0.1 µM.
`Cc1cc(F)c(C(=O)Nc2cc(CN3CCN(C)C(=O)C3)cc(C(F)(F)F)c2)cc1C#Cc1cnc2c(Nc3cn[nH]c3)cccn12` [Example 107, 5-((8-((1H-pyrazol-4-yl)amino)imidazo[1,2-a]pyridin-3-yl)ethynyl)-2-fluoro-4-methyl-N-(3-((4-methyl-3-oxopiperazin-1-yl)methyl)-5-(trifluoromethyl)phenyl)benzamide] was tested, and the GI50 (Parental (Ba/F3)) was 0.5 to 5 µM, the GI50 (T315I-Bcr-Abl (Ba/F3)) was 0.05 to 0.5 µM and the GI50 (KOPM28 cells) was under 0.01 µM. It also gave a GI50 (TCCS cells) of under 0.01 µM, a GI50 (T315I-TCCS cells) of 0.1 µM and a GI50 (T315I-KOPM28 cells) of over 0.1 µM.
For `Cc1cc(F)c(C(=O)Nc2cc(Cn3cncn3)cc(C(F)(F)F)c2)cc1C#Cc1cnc2c(Nc3cn[nH]c3)cccn12` [Example 108, N-(3-((1H-1,2,4-triazol-1-yl)methyl)-5-(trifluoromethyl)phenyl)-5-((8-((1H-pyrazol-4-yl)amino)imidazo[1,2-a]pyridin-3-yl)ethynyl)-2-fluoro-4-methylbenzamide], the GI50 (Parental (Ba/F3)) was over 5 µM, the GI50 (T315I-Bcr-Abl (Ba/F3)) was 0.05 to 0.5 µM and the GI50 (KOPM28 cells) was under 0.01 µM. The GI50 (TCCS cells) was under 0.01 µM, the GI50 (T315I-TCCS cells) was 0.1 µM and the GI50 (T315I-KOPM28 cells) was over 0.1 µM.
With `Cc1cc(F)c(C(=O)Nc2ccc(CN3CCN(C)CC3)c(C(F)(F)F)c2)cc1C#Cc1cnc2c(Nc3cn[nH]c3)cccn12` [Example 109, 5-((8-((1H-pyrazol-4-yl)amino)imidazo[1,2-a]pyridin-3-yl)ethynyl)-2-fluoro-4-methyl-N-(4-((4-methylpiperazin-1-yl)methyl)-3-(trifluoromethyl)phenyl)benzamide] the GI50 (Parental (Ba/F3)) was 0.5 to 5 µM, the GI50 (T315I-Bcr-Abl (Ba/F3)) was under 0.05 µM and the GI50 (KOPM28 cells) was under 0.01 µM. For the same molecule, the GI50 (TCCS cells) was under 0.01 µM, the GI50 (T315I-TCCS cells) was under 0.01 µM and the GI50 (T315I-KOPM28 cells) was under 0.01 µM.
`Cc1cc(F)c(C(=O)Nc2ccc(CN3CCC(N(C)C)C3)c(C(F)(F)F)c2)cc1C#Cc1cnc2c(Nc3cn[nH]c3)cccn12` (stereo not drawn) [Example 110, 5-((8-((1H-pyrazol-4-yl)amino)imidazo[1,2-a]pyridin-3-yl)ethynyl)-N-(4-((3-(dimethylamino)pyrrolidin-1-yl)methyl)-3-(trifluoromethyl)phenyl)-2-fluoro-4-methylbenzamide] was tested, and the GI50 (Parental (Ba/F3)) was 0.5 to 5 µM, the GI50 (T315I-Bcr-Abl (Ba/F3)) was under 0.05 µM and the GI50 (KOPM28 cells) was under 0.01 µM. It also gave a GI50 (TCCS cells) of under 0.01 µM, a GI50 (T315I-TCCS cells) of 0.1 µM and a GI50 (T315I-KOPM28 cells) of 0.1 µM.
`Cc1cc(F)c(C(=O)Nc2ccc(CN3CCN(CCO)CC3)c(C(F)(F)F)c2)cc1C#Cc1cnc2c(Nc3cn[nH]c3)cccn12` [Example 111, 5-((8-((1H-pyrazol-4-yl)amino)imidazo[1,2-a]pyridin-3-yl)ethynyl)-2-fluoro-N-(4-((4-(2-hydroxyethyl)piperazin-1-yl)methyl)-3-(trifluoromethyl)phenyl)-4-methylbenzamide] showed a GI50 (Parental (Ba/F3)) of 0.5 to 5 µM, a GI50 (T315I-Bcr-Abl (Ba/F3)) of 0.05 to 0.5 µM and a GI50 (KOPM28 cells) of under 0.01 µM. For the same molecule, the GI50 (TCCS cells) was under 0.01 µM, the GI50 (T315I-TCCS cells) was under 0.01 µM and the GI50 (T315I-KOPM28 cells) was under 0.01 µM.
`Cc1cc(F)c(C(=O)Nc2ccc(CN3CCN(C)C(=O)C3)c(C(F)(F)F)c2)cc1C#Cc1cnc2c(Nc3cn[nH]c3)cccn12` [Example 112, 5-((8-((1H-pyrazol-4-yl)amino)imidazo[1,2-a]pyridin-3-yl)ethynyl)-2-fluoro-4-methyl-N-(4-((4-methyl-3-oxopiperazin-1-yl)methyl)-3-(trifluoromethyl)phenyl)benzamide] showed a GI50 (Parental (Ba/F3)) of 0.5 to 5 µM, a GI50 (T315I-Bcr-Abl (Ba/F3)) of 0.05 to 0.5 µM and a GI50 (KOPM28 cells) of under 0.01 µM. For the same molecule, the GI50 (TCCS cells) was under 0.01 µM, the GI50 (T315I-TCCS cells) was 0.1 µM and the GI50 (T315I-KOPM28 cells) was 0.1 µM.
With `Cc1cc(F)c(C(=O)Nc2ccc(CN3CCN(S(C)(=O)=O)CC3)c(C(F)(F)F)c2)cc1C#Cc1cnc2c(Nc3cn[nH]c3)cccn12` [Example 113, 5-((8-((1H-pyrazol-4-yl)amino)imidazo[1,2-a]pyridin-3-yl)ethynyl)-2-fluoro-4-methyl-N-(4-((4-(methylsulfonyl)piperazin-1-yl)methyl)-3-(trifluoromethyl)phenyl)benzamide] the GI50 (Parental (Ba/F3)) was over 5 µM, the GI50 (T315I-Bcr-Abl (Ba/F3)) was 0.5 to 5 µM and the GI50 (KOPM28 cells) was under 0.01 µM. The GI50 (TCCS cells) was under 0.01 µM, the GI50 (T315I-TCCS cells) was over 0.1 µM and the GI50 (T315I-KOPM28 cells) was over 0.1 µM.
